Results taken from patent publication US10207982B2, “Solid forms of desvenlafaxine” (ALPARIS, S.A. DE C.V., priority 2016, dated 2019).

Assays:
[1] = Thermogravimetric analysis (TGA/DSC) of crystalline NSF; assay type: physicochemical
Procedure: The compound was observed as stable until 190° C., the temperature at which decomposition starts to occur.
The crystalline NSF of DSV:2,4-DHB was also characterized by X-ray powder diffraction (see FIG. 10), as well as thermogravimetric analysis (TGA/DSC) (see FIG. 11).

[2] = Intrinsic dissolution of the crystalline NSF DSV:3,4-DHB; assay type: physicochemical
Procedure: Dissolution profiles were assessed for the crystalline NSF of DSV:3,4-DHB. The rate constant values are grouped in Table 6.

[3] = Comparative dissolution profiles of five solid phases; assay type: physicochemical; parameters: Dissolution rate constant k: unit not given here; conditions: for Dissolution rate constant k: 37° C., 50 rpm; for Dissolution rate relative to the other shown phases: pH 1.2, 4.5 and 6.8
Procedure: FIG. 14. Dissolution profile in HCl solution (pH 1.2, 37° C., 50 rpm, n=3, ±SD) of the new crystalline solid phase of desvenlafaxine-3,4-dihydroxybenzoic acid (crystalline DSV:3,4-DHB), and comparison with the new amorphous solid phase of desvenlafaxine-3,4-dihydroxybenzoic acid (amorphous DSV:3,4-DHB), the new crystalline solid phase of desvenlafaxine-2,4-dihydroxybenzoic acid (crystalline DSV:2,4-DHB), desvenlafaxine (DSV), and desvenlafaxine succinate (DSV succinate). FIG. 15. Dissolution profile in acetate buffer (pH 4.5, 37° C., 50 rpm, n=3, ±SD) of the new crystalline solid phase of desvenlafaxine-3,4-dihidroxibenzoic acid (crystalline DSV:3,4-DHB), and comparison with the new amorphous solid phase of desvenlafaxine-3,4-dihydroxybenzoic acid (amorphous DSV:3,4-DHB), the new crystalline solid phase of desvenlafaxine-2,4-dihydroxybenzoic acid (crystalline DSV:2,4-DHB), desvenlafaxine (DSV), and desvenlafaxine succinate (DSV succinate). FIG. 16. Dissolution profile in phosphate buffer (pH 6.8, 37° C., 50 rpm, n=3, ±SD) of the new crystalline solid phase of desvenlafaxine-3,4-dihydroxybenzoic acid (crystalline DSV:3,4-DHB), and comparison with the new amorphous solid phase of desvenlafaxine-3,4-dihydroxybenzoic acid (amorphous DSV:3,4-DHB), the new crystalline solid phase of desvenlafaxine-2,4-dihydroxybenzoic acid (crystalline DSV:2,4-DHB), desvenlafaxine (DSV), and desvenlafaxine succinate (DSV succinate). A comparative test was carried out for the dissolution profiles at pH 1.2, 4.5 and 6.8 for the new crystalline phase DSV:3,4-DHB with respect to the amorphous NSF with the same co-former, the crystalline NSF with 2,4-dihydroxybenzoic acid, as well as desvenlafaxine base and the commercial salt (desvenlafaxine succinate).

[4] = Indicative physical stability test (X-ray powder diffraction); assay type: physicochemical; conditions: 40° C., 75% humidity, 30 days
Procedure: The amorphous NSF obtained from DSV:3-HB, DSV:3,4-DHB and DSV:3,4,5-THB were subjected to physical stability tests, wherein the NSF were subjected to temperatures of 45 and 50° C. in dry conditions (no humidity), and to 40° C., 75% humidity for 30 days.

[5] = Dissolution rate test in Wood apparatus, amorphous NSF; assay type: physicochemical; conditions: for Dissolution rate as compared to the neutral DSV: FIGS. 4A-4I, different pH values; for Dissolution Rate Constants: 150 mg tablets, 37° C., 50 rpm; for Difference in dissolution rate between dissolution media: pH 1.2 versus pH 6.8
Procedure: The dissolution rate tests were performed in aqueous media, in a Wood apparatus with 150 mg tablets at 37° C. and 50 rpm in different dissolution media, as shown in Tables 2 and 3.

[6] = assay type: physicochemical
Description: Solubility tests could not be determined because the amorphous NSF obtained are very soluble and a large amount is required to saturate the solution.

Stable until, temperature at which decomposition starts [1]	Intrinsic dissolution rate constant k ([2]; pH 1.2) [mg/cm2 · min]	Intrinsic dissolution rate constant k ([2]; pH 4.5) [mg/cm2 · min]	Intrinsic dissolution rate constant k ([2]; pH 6.8) [mg/cm2 · min]	Quotient (kNSF/kDSV) ([3]; pH 1.2)	Dissolution rate constant k ([3]; pH 1.2, HCl solution)	Quotient (kNSF/kDSV) ([3]; pH 4.5)	Dissolution rate constant k ([3]; pH 4.5, acetate buffer)	Quotient (kNSF/kDSV) ([3]; pH 6.8)	Dissolution rate constant k ([3]; pH 6.8, phosphate buffer)	Physical stability [4]	Dissolution rate as compared to the neutral DSV [5]	Dissolution Rate Constants ([5]; pH 1.2) [mg/cm^2 · min]	Difference in dissolution rate between dissolution media [5]	Dissolution Rate Constants ([5]; pH 4.5) [mg/cm^2 · min]	Dissolution Rate Constants ([5]; pH 6.8) [mg/cm^2 · min]	Dissolution Rate Constants ([5]; water) [mg/cm^2 · min]	Solubility [6]	Structure (SMILES)	Dissolution rate relative to the other shown phases [3]
–	–	–	–	–	–	–	–	–	–	–	higher dissolution rate	5.4	–	6.1	9.0	1.6	the solution did not become saturated	CN(C)CC(c1ccc(O)cc1)C1(O)CCCCC1.O=C(O)c1cc(O)c(O)c(O)c1 (centres unmarked) [DSV:3,4,5-THB, desvenlafaxine-3,4,5-trihydroxybenzoic acid]	–
–	–	–	–	–	–	–	–	–	–	–	–	5.8	–	6.1	5.4	3.8	–	CN(C)CC(c1ccc(O)cc1)C1(O)CCCCC1.O=C(O)c1cccc(O)c1 (centres unmarked) [DSV:3-HB, desvenlafaxine-3-hydroxybenzoic acid]	–

Continued, compound first:

Structure (SMILES)	Stable until, temperature at which decomposition starts [1]	Intrinsic dissolution rate constant k ([2]; pH 1.2) [mg/cm2 · min]	Intrinsic dissolution rate constant k ([2]; pH 4.5) [mg/cm2 · min]	Intrinsic dissolution rate constant k ([2]; pH 6.8) [mg/cm2 · min]	Quotient (kNSF/kDSV) ([3]; pH 1.2)	Dissolution rate constant k ([3]; pH 1.2, HCl solution)	Quotient (kNSF/kDSV) ([3]; pH 4.5)	Dissolution rate constant k ([3]; pH 4.5, acetate buffer)	Quotient (kNSF/kDSV) ([3]; pH 6.8)	Dissolution rate constant k ([3]; pH 6.8, phosphate buffer)	Physical stability [4]	Dissolution rate as compared to the neutral DSV [5]	Dissolution Rate Constants ([5]; pH 1.2) [mg/cm^2 · min]	Difference in dissolution rate between dissolution media [5]	Dissolution Rate Constants ([5]; pH 4.5) [mg/cm^2 · min]	Dissolution Rate Constants ([5]; pH 6.8) [mg/cm^2 · min]	Dissolution Rate Constants ([5]; water) [mg/cm^2 · min]	Solubility [6]	Dissolution rate relative to the other shown phases [3]
CN(C)CC(c1ccc(O)cc1)C1(O)CCCCC1.O=C(O)c1ccc(O)c(O)c1 (centres unmarked) [Crystalline DSV:3,4-DHB, 3,4-dihydroxybenzoate salt of anhydrous desvenlafaxine]	190 °C	2.48	2.19	1.43	1.8	2.47	5.9	2.19	4.8	1.54	–	–	–	–	–	–	–	–	–
CN(C)CC(c1ccc(O)cc1)C1(O)CCCCC1.O=C(O)c1ccc(O)c(O)c1 (centres unmarked) [Amorphous DSV:3,4-DHB, desvenlafaxine-3,4-dihydroxybenzoic acid]	–	–	–	–	5.0	6.69	18.4	6.81	17.0	5.45	only possible to characterize	higher dissolution rate	4.4	lower or almost null difference	5.0	5.7	2.3	–	the higher dissolution rate
CN(C)CC(c1ccc(O)cc1)C1(O)CCCCC1 (centres unmarked) [DSV-Succinate, desvenlafaxine succinate, reference compound]	–	–	–	–	2.1	–	6.9	–	10.0	–	–	–	–	–	–	–	–	–	–
CN(C)CC(c1ccc(O)cc1)C1(O)CCCCC1.O=C(O)c1ccc(O)cc1O (centres unmarked) [Crystalline DSV:2,4-DHB, desvenlafaxine-2,4-dihydroxybenzoic acid]	about 150 °C	–	–	–	0.79	1.07	0.94	0.35	0.71	0.23	–	–	–	–	–	–	–	–	lower dissolution rate than the commercial salt (succinate) and any of the other shown phases
CN(C)CC(c1ccc(O)cc1)C1(O)CCCCC1 (racemic) [DSV, (±)-1-[2-(dimethylamino)-1-(4-hydroxyphenyl)ethyl]cyclohexanol, reference compound]	–	–	–	–	–	–	–	–	–	–	–	–	6.9	14 times higher	1.2	0.5	0.0	–	–
